According to patent US6784153B1, “Methods of homing molecules to lung using membrane dipeptidase” (The Burnham Institute, priority 1998, dated 2004):
Entries after “also recorded” stand apart in the source; their conditions may differ.

Legend:
lung [1] = experiment: in vivo homing of phage displaying peptides to lung; design: species or system mice; conditions: for homing of lung homing phage to control kidney or brain: control organs
Experimental: For lung and pancreas, a mixture of phage libraries containing 10^10 TU was diluted in 200 μl DMEM and injected into the tail vein of anesthetized BALB/c mice (2 month old; Harlan Sprague Dawley; San Diego Calif.); AVERTIN (0.017 ml/g) was used as anesthetic (Pasqualini and Ruoslahti, supra, 1996). After 1-4 minutes, mice were snap frozen in liquid nitrogen or, after about 5 minutes of phage circulation, the mice were perfused through the heart with 5-10 ml of DMEM (SIGMA; St. Louis Mo.). To recover the phage, the organs from the perfused mice or partially thawed organs from snap frozen mice were collected and weighed, then were homogenized in 1 ml DMEM-PI (DMEM containing protease inhibitors (PI); phenylmethyl sulfonyl fluoride (PMSF; 1 mM), aprotinin (20 μg/ml), leupeptin (1 μg/ml)).
Organ samples were washed 3 times with ice cold DMEM-PI containing 1% bovine serum albumin (BSA), then directly incubated with 1 ml K91-kan bacteria for 1 hr. Ten ml NZY medium containing 0.2 μg/ml tetracycline (NZY/tet) was added to the bacterial culture, the mixture was incubated in a 37° C. shaker for 1 hr, then 200 μl aliquots were plated in agar plates containing 40 μg/ml tetracycline (tet/agar).
Approximately 250 to 300 individual bacterial colonies containing phage recovered from the various organs or tissues were grown for 16 hr in 5 ml NZY/tet. In some experiments, approximately 1000 individual bacteria containing phage were picked and the phage were amplified in 2 ml of NZY/tet or the entire plate containing phage was scraped, pooled and grown in bulk and processed for injection. Where phage were cultured separately, the cultures were pooled and the phage were injected into mice or rats as described above for a second round of in vivo panning. In some experiments, a third or fourth round of panning was performed. Phage DNA was purified from individual bacterial colonies obtained and the DNA sequences encoding the peptides expressed by selected phage were determined (see Koivunen et al., supra, 1994b).
After two or three rounds of in vivo panning of mice injected with a cyclic CX3CX3CX3C (SEQ ID NO: 25) or a cyclic CX6C (SEQ ID NO: 26) phage display library, four peptides that homed to lung were identified.
To determine the specificity of lung homing of the individual peptides identified, phage displaying the peptides were amplified individually, diluted to the same input titer and administered to mice. Following administration, control kidney and brain organ was removed and the number of TU of phage in lung, kidney and brain was determined. The results shown in FIG. 2 reveal that 10× and 35× more phage having the peptide sequence CGFECVRQCPERC (SEQ ID NO: 1; GFE-1) bound to lung than to kidney and brain, respectively. […] The lung homing peptides CGFECVRQCPERC (SEQ ID NO: 1; GFE-1), CGFELETC (SEQ ID NO: 2; GFE-2), CTLRDRNC (SEQ ID NO: 15) and CIGEVEVC (SEQ ID NO: 16) are enriched in lung at 35×, 9×, 6× and 5×, respectively, over unselected phage (see FIG. 2).

lung [2] = experiment: immunohistologic analysis of lung homing phage; format: in vivo, mice
Experimental: Phage displaying homing peptides were detected in lung, pancreas and skin by immunostaining histologic sections obtained 5 min after administration of phage expressing a lung, pancreas or skin homing peptide (“peptide-phage”) to a mouse. Following administration of the peptide-phage, mice were handled as described above and various organs, including lung, pancreas and skin, were removed and fixed in Bouin's solution (SIGMA). Histologic sections were prepared and reacted with anti-M13 (phage) antibodies (Pharmacia Biotech; see U.S. Pat. No. 5,622,699, supra, 1997; Pasqualini and Ruoslahti, supra, 1996). Visualization of the bound anti-M13 antibody was performed using a second antibody conjugated to peroxidase (SIGMA) according to the manufacturer's instructions.
Phage displaying the lung homing peptide, GFE-1 (SEQ ID NO: 1), were administered intravenously to mice and, after 5 minutes of circulation, the lung was isolated and processed as described above. […] However, staining of bronchiolar walls and some larger blood vessels was absent.

[3] = test system: C8161 human melanoma cells; experiment: experimental lung metastasis of C8161 human melanoma cells; format: in vivo, mice; conditions: 10^5 C8161 cells coadministered with 250 μg peptide, tail vein; five weeks after injection; listed as GFE-1
Experimental: Experimental lung metastasis was induced in mice using C8161 human melanoma cells essentially as described in Arap et al., Science 279:377-380 (1998) and Pasqualini et al., Nature Med. 11:1197-1203, each of which is incorporated herein by reference. Briefly, C8161 cells were cultured to 75% confluence and then collected with 2.5 mM EDTA/PBS. The C8161 cancer cells were injected into the tail vein of female nude BALB/c mice (two months old) at a concentration of 10^5 cells per animal. Two sets of five mice were injected with the cells alone; cells with 250 μg control CARAC peptide (SEQ ID NO: 443) or cells with 250 μg GFE-1 peptide (SEQ ID NO: 1). Each injection was in a total volume of 200 μl.
Mice were sacrificed five weeks after injection, and the lungs collected and weighed.

mouse B16 = experiment: experimental lung metastasis of B16 melanoma cells; format: in vivo, mice; conditions: mouse B16 melanoma cell line
Text: As disclosed herein, selective homing of GFE-1 (SEQ ID NO: 1) to lung endothelium in vivo is mediated by the cell surface protease, MDP.

[4] = individually amplified phage, FIG. 2

CGFECVRQCPERC [lung homing peptide]
% OF MOTIF AMONG ALL CLONES (lung [1]; LUNG): 40%
LUNG/BRAIN RATIO (lung [1]; LUNG section): 60
homing of lung homing phage to control kidney or brain (lung [1]): few phage detected in kidney or brain; also recorded: no selective homing to kidney or brain was detected
homing of lung homing phage to control kidney or brain (lung [1]; listed as GFE-1): no specific phage homing to kidney was detected
enriched in lung over unselected phage (lung [1]; [4]): 35 ×
phage bound to lung than to brain (lung [1]; [4]): 35 ×
phage bound to lung than to kidney (lung [1]; [4]): 10 ×
immunohistochemical staining of lung (lung [2]; 5 min after intravenous phage): staining of the alveolar capillaries was observed
staining of pancreas and skin after lung homing phage (lung [2]; control tissues): no staining was observed in pancreas and skin
lung metastasis (lung weight) [3]: inhibit experimental lung metastasis; also recorded: significantly less; also recorded: inhibits lung metastasis of human melanoma cells
experimental lung metastasis (mouse B16): inhibit experimental lung metastasis
